Here are results for nine compounds from ChEMBL document CHEMBL3779811, “A new dammarane-type saponin from Gynostemma pentaphyllum induces apoptosis in A549 human lung carcinoma cells” (Bioorg Med Chem Lett, 2016).

Experiment [1] relates to A549. The experiment is described as follows: Induction of apoptosis in human A549 cells assessed as chromatin condensation at 50 ug/mL after 48 hrs by Hoechst-33258 staining based fluorescence microscopy. In kind it is functional, cell-based.
For experiment [2], the system named is A549. The experiment is described as follows: Induction of apoptosis in human A549 cells assessed as loss of mitochondrial membrane potential by measuring ratio of red to green fluorescence at 50 ug/ml after 48 hrs by JC-1 staining based flow cytometry (reference value: 28.9). In kind it is functional. (In general: A flow cytometer gives signals particle by particle.)

Experiment [3] relates to A549. The experiment is described as follows: Induction of apoptosis in human A549 cells assessed as mitochondrial depolarization at 50 ug/ml after 48 hrs by JC-1 staining based fluorescence microscopy. The format is functional, cell-based.
Experiment [4] relates to A549. The experiment is described as follows: Cytotoxicity against human A549 cells assessed as decrease in viable cells at 60 ug/mL after 48 hrs by CCK-8 assay. The format is functional. On the technique in general: Tetrazolium assays rely on reduction of a dye to a coloured formazan, in cell work by metabolically active cells.
For experiment [5], the system named is A549. The experiment is described as follows: Cytotoxicity against human A549 cells assessed as decrease in viable cells after 48 hrs by CCK-8 assay. In kind it is functional, cell-based. The note with it: for IC50: A549, 48 h.
Experiment [6] has as its system A549. The experiment can be described thus: Induction of apoptosis in human A549 cells assessed as necrotic cells at 50 ug/mL after 48 hrs by Annexin V-FITC/propidium iodide staining based flow cytometry (reference value: 0.59 %). In kind it is functional.
The subject of experiment [7] is A549. The experiment is described as follows: Induction of apoptosis in human A549 cells assessed as mitochondrial membrane potential at 50 ug/ml after 48 hrs by JC-1 staining based flow cytometry (reference value: 96.66%). The format is functional.
The subject of experiment [8] is A549. The experiment is described as follows: Induction of apoptosis in human A549 cells assessed as late apoptotic cells at 50 ug/mL after 48 hrs by Annexin V-FITC/propidium iodide staining based flow cytometry (reference value: 3.38 %). The format is functional.
Experiment [9] deals with A549. The experiment is described as follows: Induction of apoptosis in human A549 cells assessed as viable cells at 50 ug/mL after 48 hrs by Annexin V-FITC/propidium iodide staining based flow cytometry (reference value: 91.46 %). In kind it is functional. As to conditions: A549, 48 h, read-out: Activity.
Experiment [10] has as its system A549. The experiment can be described thus: Induction of apoptosis in human A549 cells assessed as early apoptotic cells at 50 ug/mL after 48 hrs by Annexin V-FITC/propidium iodide staining based flow cytometry (reference value: 4.57 %). In kind it is functional.
The subject of experiment [11] is A549. The experiment can be described thus: Induction of apoptosis in human A549 cells assessed as round and shrunken cells at 50 ug/mL after 48 hrs by inverted microscopy. In kind it is functional, cell-based.
Experiment [12] relates to A549. The experiment can be described thus: Induction of apoptosis in human A549 cells assessed as increase in detached cells at 50 ug/ml after 48 hrs by inverted microscopy. In kind it is functional, cell-based.

≈ marks a conversion by molar mass, not a printed value. Calls of active or inactive are those of the source. The calls are words filed in the database; no cut-off is given here.

By IC50 is commonly meant the concentration that gives 50% inhibition. On to `CC(C)=CCC[C@](C)(O)[C@@H]1CC[C@@]2(C)[C@H]1[C@@H](O)C[C@H]1[C@]3(C)C[C@H](O)[C@@H](O[C@H]4O[C@@H](CO)[C@H](O)[C@@H](O)[C@@H]4O)C(C)(C)[C@H]3CC[C@@]12C`, for which the outcome in the experiment with A549 [1], in the experiment on A549 [3], with A549 [11] and in the experiment with A549 [12] was Active. In addition, the Ratio in the experiment with A549 [2] turned out to be 8.7. The Activity with A549 [4] was 44.7%; with A549 [5] it was “Dose-dependent effect”; with A549 [6], 1.44%; in the experiment with A549 [7], 89.64%; in the experiment on A549 [8], 2.74%; in the experiment on A549 [10] it was 14.34%. In the experiment with A549 [5], the IC50 came out at 74.3 µg/mL (≈ 116 µM). The viability at 50 µg/mL in the experiment on A549 [9] is 81.5%.

As to `CC(=O)OC[C@H]1O[C@@H](O[C@H]2[C@H](O[C@H]3[C@H](O)C[C@]4(C)[C@H]5C[C@@H](O)[C@@H]6[C@@H](/C(C)=C\CC=C(C)C)CC[C@@]6(C)[C@]5(C)CC[C@H]4C3(C)C)O[C@H](CO)[C@@H](O)[C@@H]2O)[C@H](O)[C@@H](O)[C@@H]1O`, in the experiment on A549 [5], the IC50 was determined as 61.2 µg/mL (≈ 74.2 µM).

With `CC(C)=CCC[C@@](C)(O[C@@H]1O[C@H](CO[C@H]2OC[C@H](O)[C@@H](O)[C@@H]2O)[C@@H](O)[C@H](O)[C@H]1O)[C@@H]1CC[C@@]2(C)[C@H]1[C@@H](O)C[C@H]1[C@]3(C)C[C@H](O)[C@@H](O[C@H]4O[C@@H](CO)[C@H](O)[C@@H](O)[C@@H]4O[C@H]4O[C@@H](CO)[C@H](O)[C@@H](O)[C@@H]4O)C(C)(C)[C@H]3CC[C@@]12C`, the IC50 with A549 [5] is 168 µg/mL (≈ 153 µM).

`CC(C)=CCC[C@](C)(O)[C@H]1CC[C@]2(C)[C@@H]1[C@H](O)C[C@@H]1[C@@]3(C)C[C@@H](O)[C@H](O[C@@H]4O[C@H](CO)[C@@H](O)[C@H](O)[C@H]4O[C@@H]4O[C@H](CO)[C@@H](O)[C@H](O)[C@H]4O)C(C)(C)[C@@H]3CC[C@]12C`: the Activity in the experiment with A549 [4] is 37.2%; with A549 [5], “Dose-dependent effect”. Also, in the experiment on A549 [5], the concentration for half-maximal inhibition (IC50) turned out to be 78.6 µg/mL (≈ 98.1 µM).

`C=C(CCC=C(C)C)[C@H]1CC[C@]2(C)[C@@H]1[C@H](O)C[C@@H]1[C@@]3(C)C[C@@H](O)[C@H](O[C@@H]4O[C@H](CO)[C@@H](O)[C@H](O)[C@H]4O[C@@H]4O[C@H](CO)[C@@H](O)[C@H](O)[C@H]4O)C(C)(C)[C@@H]3CC[C@]12C` [DAMULIN B]: in the experiment on A549 [5], the IC50 was found to be 23.8 µg/mL (≈ 30.4 µM).

Regarding `C=C(CCC=C(C)C)[C@H]1CC[C@]2(C)[C@@H]1[C@H](O)C[C@@H]1[C@@]3(C)C[C@@H](O)[C@H](O[C@@H]4O[C@H](CO)[C@@H](O)[C@H](O)[C@H]4O[C@@H]4O[C@H](COC(C)=O)[C@@H](O)[C@H](O)[C@H]4O)C(C)(C)[C@@H]3CC[C@]12C`, the IC50 in the experiment with A549 [5] stood at 40.4 µg/mL (≈ 49 µM).

For the compound `CC(C)=CC/C=C(/C)[C@H]1CC[C@]2(C)[C@@H]1[C@H](O)C[C@@H]1[C@@]3(C)C[C@@H](O)[C@H](O[C@@H]4O[C@H](CO)[C@@H](O)[C@H](O)[C@H]4O[C@@H]4O[C@H](CO)[C@@H](O)[C@H](O)[C@H]4O)C(C)(C)[C@@H]3CC[C@]12C`, in the experiment with A549 [5], the concentration for half-maximal inhibition (IC50) worked out at 29 µg/mL (≈ 37 µM).

For `CC(C)=CCC[C@@](C)(O[C@@H]1O[C@H](CO)[C@@H](O)[C@H](O)[C@H]1O)[C@@H]1CC[C@@]2(C)[C@H]1[C@@H](O)C[C@H]1[C@]3(C)C[C@H](O)[C@@H](O[C@H]4O[C@@H](CO)[C@H](O)[C@@H](O)[C@@H]4O[C@H]4O[C@@H](CO)[C@H](O)[C@@H](O)[C@@H]4O)C(C)(C)[C@H]3CC[C@@]12C`, the IC50 in the experiment on A549 [5] is 112 µg/mL (≈ 116 µM).

On to `CC(C)=CCC[C@@](C)(O)[C@H]1CC[C@]2(C)[C@@H]1[C@H](O)C[C@@H]1[C@@]3(C)C[C@@H](O)[C@H](O[C@@H]4O[C@H](CO)[C@@H](O)[C@H](O)[C@H]4O[C@@H]4O[C@H](CO)[C@@H](O)[C@H](O)[C@H]4O)C(C)(C)[C@@H]3CC[C@]12C`, for which the Activity in the experiment with A549 [4] amounted to 30%. For the same compound, in the experiment on A549 [5], the Activity result is “Dose-dependent effect” and the half-inhibitory concentration (IC50) is 91 µg/mL (≈ 114 µM).
